Where a name gives a salt, the structure may show the parent alone.
Molecular target: T1, recombinant purified human EHMT2 913-1193 (Homo sapiens, UniProt Q96KQ7)
T1 construct: Recombinant purified human EHMT2 913-1193 (55 μM) synthesized by Viva was used for all experiments; purchased Viva
T1 sequence (Q96KQ7 913-1193): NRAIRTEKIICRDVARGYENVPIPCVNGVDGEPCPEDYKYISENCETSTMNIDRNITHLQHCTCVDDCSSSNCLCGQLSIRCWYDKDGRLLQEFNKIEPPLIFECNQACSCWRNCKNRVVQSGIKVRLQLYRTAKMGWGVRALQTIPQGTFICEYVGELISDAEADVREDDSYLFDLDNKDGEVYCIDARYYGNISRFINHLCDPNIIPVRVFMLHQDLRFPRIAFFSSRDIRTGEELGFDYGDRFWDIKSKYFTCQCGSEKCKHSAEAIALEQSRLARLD
Assay: EHMT2 enzyme assay on histone peptide substrate (3H-SAM Flashplate)
Type: biochemical
Conditions: read-out: EHMT2 PEP (IC50 μM)
Method in brief: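 Compounds (10-point 3-fold series, top 50 μM final, 2% DMSO) preincubated 30 min with 0.031 nM EHMT2 in 20 mM Bicine pH 7.5, 1 mM TCEP; reaction started with 3H-SAM and biotinylated H3 1-15 peptide, both at Km, run 60 min at room temperature. Flashplate capture; IC50 from four-parameter fit, triplicates.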

Row | Compound | IC50 [µM]
1 | CNc1cc(C)nc(Nc2ccc(OC)c(-n3cc4c(C)nccc4n3)c2)n1 [Compound 99] | 1 to 10
2 | CNc1cc(C)nc(Nc2ccc(OC)c(-n3cc(C)c(CN(C)C)n3)c2)n1 [Compound 102] | 1 to 10
3 | CNC(=O)N1CC(CNc2cc(C)nc(Nc3ccc(OC)c(-n4cc5c(n4)CCN(C)C5)c3)n2)C1 [Compound 88] | 0.1 to 1
4 | CNc1cc(C)nc(Nc2ccc(OC)c(-n3nnc(C)c3CN(C)C)c2)n1 [Compound 138] | > 10
5 | CCn1cc(NC(=O)c2cc(Nc3nc(C)cc(NC)n3)ccc2OC)cn1 [Compound 49] | > 10
6 | CNc1cc(C)nc(Nc2ccc(OC)c(-n3cc(CN(C)C)nn3)c2)n1 [Compound 66] | 0.1 to 1
7 | CCN1CCc2nn(-c3cc(Nc4nc(C)cc(NC)n4)ccc3OC)cc2C1 [Compound 70] | 0.1 to 1
8 | CNc1cc(C)nc(Nc2ccc(OC)c(-n3ccc(CN(C)C(C)=O)n3)c2)n1 [Compound 96] | > 10
9 | CNc1cc(C)nc(Nc2ccc(OC)c(-n3cc(C)c4c3CCN(C)C4)c2)n1 [Compound 81] | 1 to 10
10 | CNc1cc(C)nc(Nc2ccc(OC)c(-c3nnc4n3CCN(C(=O)OC(C)(C)C)C4)c2)n1 [Compound 77] | > 10
11 | CNc1cc(C)nc(Nc2ccc(OC)c(-c3nnc(CN(C)C)[nH]3)c2)n1 [Compound 73] | > 10
12 | CNc1cc(C)nc(Nc2cc(-n3cc4c(n3)CCN(C)C4)c(OC)cn2)n1 [Compound 65] | > 10
13 | CNc1cc(C)nc(Nc2ccc(OC)c(-n3ccc(CNC(C)=O)n3)c2)n1 [Compound 95] | > 10
14 | CNCc1c(C)nn(-c2cc(Nc3nc(C)cc(NC)n3)ccc2OC)c1C [Compound 106] | > 10
15 | CNc1cc(C)nc(Nc2ccc(OC)c(-n3cc4cc(C)ccc4n3)c2)n1 [Compound 144] | 1 to 10
16 | CNc1cc(C)nc(Nc2ccc(OC)c(-n3ncc4c3CCNC4)c2)n1 [Compound 113, N2-(4-methoxy-3-(4,5,6,7-tetrahydro-1H-pyrazolo[4,3-c]pyridin-1-yl)phenyl)-N4,6-dimethylpyrimidine-2,4-diamine] | < 0.1
17 | CNc1cc(C)nc(Nc2ccc(OC)c(-n3cc(CN4CCC4)nn3)c2)n1 [Compound 121] | 0.1 to 1
18 | CNc1cc(C)nc(Nc2ccc(OC)c(-c3ccc4cc[nH]c4n3)c2)n1 [Compound 42] | > 10
19 | CNc1cc(C)nc(Nc2cnc(OC)c(-c3nc4cnccn4n3)c2)n1 [Compound 60] | > 10
20 | CNc1cc(C)nc(Nc2ccc(OC)c(-n3cc4c(n3)CN(C)CC4)c2)n1 [Compound 3] | 1 to 10
21 | CNc1cc(C)nc(Nc2ccc(OC)c(-n3cc4c(n3)CCOC4)c2)n1 [Compound 43] | > 10

Row | Compound | IC50 [µM]
22 | CNc1cc(C)nc(Nc2ccc(OC)c(-n3cc(CN(C)C)cn3)c2)n1 [Compound 109, N2-(3-(4-((dimethylamino)methyl)-1H-pyrazol-1-yl)-4-methoxyphenyl)-N4,6-dimethylpyrimidine-2,4-diamine] | < 0.1
23 | CNc1cc(C)nc(Nc2cnc(OC)c(-n3cc4c(n3)CCNC4)c2)n1 [Compound 50] | 0.1 to 1
24 | CNc1cc(C)nc(Nc2ccc(OC)c(-n3nnc(CN(C)C)c3C)c2)n1 [Compound 139] | > 10
25 | CNc1cc(C)nc(Nc2cnc(OC)c(-n3cc4c(n3)CCN(C)C4)c2)n1 [Compound 57] | 1 to 10
26 | CNc1cc(C)nc(Nc2ccc(OC)c(-n3cc4c(n3)CCN(C3COC3)C4)c2)n1 [Compound 69] | > 10
27 | CNc1cc(C)nc(Nc2ccc(OC)c(-c3nc4c([nH]3)CN(C)CC4)c2)n1 [Compound 79] | 1 to 10
28 | CNc1cc(C)nc(Nc2ccc(OC)c(-c3nc4c([nH]3)CNCC4)c2)n1 [Compound 78] | 1 to 10
29 | CNc1cc(C)nc(Nc2ccc(OC)c(-n3cc4c(n3)CCN(C3CC3)C4)c2)n1 [Compound 82] | 0.1 to 1
30 | CNc1cc(C)nc(Nc2cnc(OC)c(-n3cnc(CN(C)C)n3)c2)n1 [Compound 62] | > 10
31 | CNc1cc(C)nc(Nc2cnc(OC)c(-n3cc(CN(C)C)cn3)c2)n1 [Compound 74] | 0.1 to 1
32 | CNc1cc(C)nc(Nc2ccc(OC)c(-n3cc4cc(C5CC5)ccc4n3)c2)n1 [Compound 145] | > 10
33 | CNc1cc(C)nc(Nc2ccc(OC)c(-n3cc4ccncc4n3)c2)n1 [Compound 41] | > 10
34 | CNc1cc(C)c2cc(OC)c(-n3cc(C4CCCN4)nn3)cc2n1 (stereo not shown) [Compound 125] | 0.1 to 1
35 | CNc1cc(C)nc(Nc2ccc(OC)c(-n3cc(CN4CCCC4)cn3)c2)n1 [Compound 5, 2-N-[4-methoxy-3-[4-(pyrrolidin-1-ylmethyl)-1H-pyrazol-1-yl]phenyl]-4-N,6-dimethylpyrimidine-2,4-diamine] | 1 to 10
36 | CNc1cc(C)nc(Nc2ccc(OC)c(-n3cnc(CN(C)C)n3)c2)n1 [Compound 61] | > 10
37 | CNc1cc(C)nc(Nc2ccc(OC)c(-n3cnc(CN4CCC4)n3)c2)n1 [Compound 67] | > 10
38 | CNC(=O)c1cn(-c2cc(Nc3nc(C)cc(NC)n3)ccc2OC)nc1C [Compound 103] | > 10
39 | CNc1cc(C)nc(Nc2ccc(OC)c(-n3cc(C4CCCN4)nn3)c2)n1 (stereo not shown) [Compound 137, N2-(4-methoxy-3-(4-(pyrrolidin-2-yl)-1H-1,2,3-triazol-1-yl)phenyl)-N4,6-dimethylpyrimidine-2,4-diamine] | < 0.1
40 | CNc1cc(C)nc(Nc2ccc(OC)c(-n3ncc4c3CN(C(C)=O)CC4)c2)n1 [Compound 75] | > 10
41 | CNc1cc(C)nc(Nc2ccc(OC)c(-n3nccc3CNC(C)=O)c2)n1 [Compound 76] | > 10
42 | CNC(=O)c1cnn(-c2cc(Nc3nc(C)cc(NC)n3)ccc2OC)c1 [Compound 104] | > 10

Row | Compound | IC50 [µM]
43 | CNc1cc(C)nc(Nc2ccc(OC)c(-c3nc4cnccc4[nH]3)c2)n1 [Compound 47] | 1 to 10
44 | CNc1cc(C)nc(Nc2ccc(OC)c(-n3cc4c(n3)CCCN4)c2)n1 [Compound 56, N2-(4-methoxy-3-(4,5,6,7-tetrahydro-2H-pyrazolo[4,3-b]pyridin-2-yl)phenyl)-N4,6-dimethylpyrimidine-2,4-diamine hydrochloride] | > 10
45 | CNc1cc(C2CCOCC2)c2cc(OC)c(-n3cc(CN(C)C)nn3)cc2n1 [Compound 116] | 1 to 10
46 | CNC(=O)c1nn(-c2cc(Nc3nc(C)cc(NC)n3)ccc2OC)cc1C [Compound 134] | > 10
47 | CCN(CC)Cc1cn(-c2cc(Nc3nc(C)cc(NC)n3)ccc2OC)nn1 [Compound 143] | 0.1 to 1
48 | CNc1cc(C)nc(Nc2ccc(OC)c(-n3cc4c(OC)nccc4n3)c2)n1 [Compound 100] | > 10
49 | CNCc1cn(-c2cc3nc(NC)cc(C)c3cc2OC)nn1 [Compound 122] | 1 to 10
50 | CNC(=O)c1cn(-c2cc(Nc3nc(C)cc(NC)n3)ccc2OC)nn1 [Compound 117] | > 10
51 | COc1ncc(Nc2nc(C)cc(NCC3COC3)n2)cc1-n1cc(CN(C)C)nn1 [Compound 86] | > 10
52 | CNc1cc(C)nc(Nc2ccc(OC)c(-n3cc(C)c(CNC(C)=O)n3)c2)n1 [Compound 94] | > 10
53 | CNc1cc(C)nc(Nc2ccc(OC)c(-c3cc4cnccn4n3)c2)n1 [Compound 93] | > 10
54 | CNc1cc(C)nc(Nc2ccc(OC)c(-n3cnc(CN4CC(F)C4)n3)c2)n1 [Compound 68] | > 10
55 | CNc1cc(C)nc(Nc2ccc(OC)c(-n3cc4c(n3)CCN(C)C4)c2)n1 [Compound 2] | < 0.1
56 | CNC(=O)c1c(C)nn(-c2cc(Nc3nc(C)cc(NC)n3)ccc2OC)c1C [Compound 105] | > 10
57 | CNC(=O)CCNc1cc(C)nc(Nc2ccc(OC)c(-n3cc4c(n3)CCN(C)C4)c2)n1 [Compound 87] | 0.1 to 1
58 | CNc1cc(C)nc(Nc2ccc(OC)c(-c3cc4cnccc4[nH]3)c2)n1 [Compound 48] | 0.1 to 1
59 | CNc1cc(C)nc(Nc2ccc(OC)c(-n3ccc(CN4CCCC4)n3)c2)n1 [Compound 4, trifluoroacetic acid] | 1 to 10
60 | CNc1cc(C)nc(Nc2ccc(OC)c(-n3ncc4ncccc43)c2)n1 [Compound 119] | > 10
61 | CNc1cc(C)nc(Nc2ccc(OC)c(-n3cc(C4CCCN4C)nn3)c2)n1 (stereo not shown) [Compound 136] | 0.1 to 1
